Test results reported in US20230365576A1, “BRM Targeting Compounds And Associated Methods Of Use” (Prelude Therapeutics Incorporated, priority 2022, published 2023).

Key:
SMARCA2 = biological target: T1, SMARCA2 (Homo sapiens, UniProt P51531); experiment: SMARCA2 HiBiT degradation assay in HeLa cells; assay type: cell-based; conditions: 18 hours; for DC50: read-out: SMARCA2 IC50; for Dmax: HeLa
T1 construct: SMARCA2-HiBiT knock-in Hela monoclonal cell (CS302366); host or cells: HeLa (CRISPR HiBiT knock-in monoclonal line, heterozygous)
T1 sequence (P51531 whole entry): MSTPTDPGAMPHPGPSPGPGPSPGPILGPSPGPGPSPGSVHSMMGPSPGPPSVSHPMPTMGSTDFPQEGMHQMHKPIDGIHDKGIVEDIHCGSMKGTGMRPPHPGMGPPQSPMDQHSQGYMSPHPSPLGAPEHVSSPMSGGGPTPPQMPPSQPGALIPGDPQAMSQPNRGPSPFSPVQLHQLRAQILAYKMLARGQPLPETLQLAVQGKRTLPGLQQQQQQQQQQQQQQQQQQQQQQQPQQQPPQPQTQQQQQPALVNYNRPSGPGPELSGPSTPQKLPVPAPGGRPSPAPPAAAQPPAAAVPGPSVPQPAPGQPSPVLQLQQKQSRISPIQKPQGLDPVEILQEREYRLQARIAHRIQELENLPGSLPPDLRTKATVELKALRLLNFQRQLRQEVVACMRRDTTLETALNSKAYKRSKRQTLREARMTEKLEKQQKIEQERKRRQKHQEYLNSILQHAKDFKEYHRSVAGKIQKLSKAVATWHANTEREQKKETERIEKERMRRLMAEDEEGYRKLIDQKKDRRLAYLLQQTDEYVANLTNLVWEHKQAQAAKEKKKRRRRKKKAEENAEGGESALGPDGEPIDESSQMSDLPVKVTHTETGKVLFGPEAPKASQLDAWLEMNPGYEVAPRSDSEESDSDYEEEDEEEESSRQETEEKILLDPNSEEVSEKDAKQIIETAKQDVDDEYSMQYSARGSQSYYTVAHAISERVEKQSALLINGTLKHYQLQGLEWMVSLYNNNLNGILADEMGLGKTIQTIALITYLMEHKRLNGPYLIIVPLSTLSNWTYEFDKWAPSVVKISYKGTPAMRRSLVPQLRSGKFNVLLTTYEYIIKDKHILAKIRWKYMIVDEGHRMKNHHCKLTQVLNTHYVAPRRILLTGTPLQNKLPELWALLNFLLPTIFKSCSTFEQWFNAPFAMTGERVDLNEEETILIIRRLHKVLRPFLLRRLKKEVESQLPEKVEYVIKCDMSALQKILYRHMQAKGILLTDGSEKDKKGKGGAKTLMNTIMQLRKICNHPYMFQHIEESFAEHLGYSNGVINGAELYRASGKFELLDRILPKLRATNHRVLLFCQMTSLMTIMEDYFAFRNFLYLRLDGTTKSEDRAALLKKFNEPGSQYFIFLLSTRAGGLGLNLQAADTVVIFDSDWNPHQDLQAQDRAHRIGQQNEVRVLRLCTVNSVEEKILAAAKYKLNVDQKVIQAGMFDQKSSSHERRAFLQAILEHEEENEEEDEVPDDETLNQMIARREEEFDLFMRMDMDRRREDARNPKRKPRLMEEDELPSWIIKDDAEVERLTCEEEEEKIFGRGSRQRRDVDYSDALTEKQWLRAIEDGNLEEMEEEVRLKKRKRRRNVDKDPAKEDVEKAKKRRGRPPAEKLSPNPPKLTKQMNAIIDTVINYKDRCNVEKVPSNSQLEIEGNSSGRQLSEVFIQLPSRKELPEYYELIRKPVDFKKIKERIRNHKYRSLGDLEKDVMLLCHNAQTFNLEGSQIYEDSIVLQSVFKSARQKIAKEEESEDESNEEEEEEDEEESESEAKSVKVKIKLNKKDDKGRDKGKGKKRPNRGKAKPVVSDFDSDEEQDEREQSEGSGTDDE
Protocol: (§1) Example A. SMARCA2 HiBiT and SMARCA4 HiBiT Degradation Assay
(§2) Preparation of SMARCA2/4-HiBiT Knock-In Cells
(§3) HiBiT peptide knock-in of SMARCA2 in LgBiT expressing HEK293T cells was performed by CRISPR-mediated tagging system as described Promega. The homozygous HiBiT knock-in on c-terminus SMARCA2 was confirmed by sanger sequence. SMARCA2-HiBiT knock-in Hela monoclonal cell (CS302366) and SMARCA4-HiBiT knock-in Hela monoclonal cell (CS3023226) were purchased from Promega. The heterozygous HiBiT-knock-in was confirmed by sanger sequence in both SMARCA2-HiBiT and SMARCA4-HiBiT monoclonal cells.
(§4) SMARCA2 HiBiT and SMARCA4 HiBiT Degradation Assay in HeLa Cells
(§5) Compounds were dissolved in DMSO to make 10 mM stock and 3-fold series dilutions were further conducted keeping the highest concentration 10 μM. NCIH1693 and NCIH520 cells were maintained in PRMI 1640 medium (Corning Cellgro, Catalog #:10-040-CV) supplemented with 10% v/v FBS (GE Healthcare, Catalog #: SH30910.03) by splitting 1:3 twice a week.
(§6) Dispense 10 ul aliquot of prepared Hela-SMARCA2-HiBiT or Hela-SMARCA4-HiBiT cells (1:1 ratio of cells:Trypan Blue (#1450013, Bio-Rad)) onto cell counting slide (#145-0011, Bio-Rad) and obtain cell density and cell viability using cell counter (TC20, Bio-Rad). Remove appropriate volume of resuspended cells from culture flask to accommodate 2500 cells/well @ 20 μL/well. Transfer Hela-HiBiT cells to 50 mL conical (#430290, Corning). Spin down at 1000 rpm for 5 min using tabletop centrifuge (SPINCHRON 15, Beckman). Discard supernatant and resuspend cell pellet in modified EMEM (#30-2003, ATCC) cell culture media containing 10% FBS (F2422-500ML, Sigma), and 1X Penicillin/Streptomycin (200 g/L) (30-002-CI, Corning) to a cell density of 125,000 cells/mL. Dispense 20 μL of resuspended Hela-HiBit cells per well in 384-well TC treated plate (#12-565-343, Thermo Scientific) using standard cassette (#50950372, Thermo Scientific) on Multidrop Combi (#5840310, Thermo Scientific) inside laminar flow cabinet. Dispense test compounds onto plates using digital liquid dispenser (D300E, Tecan). Incubate plates in humidified tissue culture incubator @37° C. for 18 hours. Add 20 μL of prepared Nano-Glo® HiBiT Lytic detection buffer (N3050, Promega) to each well of 384-well plate using small tube cassette (#24073295, Thermo Scientific) on Multidrop Combi, incubate @ RT for 30-60 min. Read plates on microplate reader (Envision 2105, PerkinElmer) using 384 well Ultra-Sensitive luminescence mode. Raw data files and compound information reports are swept into centralized data lake and deconvoluted using automated scripts designed by TetraScience, Inc. Data analysis, curve-fitting and reporting done in Dotmatics Informatics Suite using Screening Ultra module.

SMARCA4 = biological target: T2, SMARCA4 (Homo sapiens, UniProt P51532); experiment: SMARCA4 HiBiT degradation assay in HeLa cells; assay type: cell-based; conditions: 18 hours; for Dmax: HeLa
T2 construct: SMARCA4-HiBiT knock-in Hela monoclonal cell (CS3023226) were purchased from Promega; host or cells: HeLa (CRISPR HiBiT knock-in monoclonal line, heterozygous)
T2 sequence (P51532 whole entry): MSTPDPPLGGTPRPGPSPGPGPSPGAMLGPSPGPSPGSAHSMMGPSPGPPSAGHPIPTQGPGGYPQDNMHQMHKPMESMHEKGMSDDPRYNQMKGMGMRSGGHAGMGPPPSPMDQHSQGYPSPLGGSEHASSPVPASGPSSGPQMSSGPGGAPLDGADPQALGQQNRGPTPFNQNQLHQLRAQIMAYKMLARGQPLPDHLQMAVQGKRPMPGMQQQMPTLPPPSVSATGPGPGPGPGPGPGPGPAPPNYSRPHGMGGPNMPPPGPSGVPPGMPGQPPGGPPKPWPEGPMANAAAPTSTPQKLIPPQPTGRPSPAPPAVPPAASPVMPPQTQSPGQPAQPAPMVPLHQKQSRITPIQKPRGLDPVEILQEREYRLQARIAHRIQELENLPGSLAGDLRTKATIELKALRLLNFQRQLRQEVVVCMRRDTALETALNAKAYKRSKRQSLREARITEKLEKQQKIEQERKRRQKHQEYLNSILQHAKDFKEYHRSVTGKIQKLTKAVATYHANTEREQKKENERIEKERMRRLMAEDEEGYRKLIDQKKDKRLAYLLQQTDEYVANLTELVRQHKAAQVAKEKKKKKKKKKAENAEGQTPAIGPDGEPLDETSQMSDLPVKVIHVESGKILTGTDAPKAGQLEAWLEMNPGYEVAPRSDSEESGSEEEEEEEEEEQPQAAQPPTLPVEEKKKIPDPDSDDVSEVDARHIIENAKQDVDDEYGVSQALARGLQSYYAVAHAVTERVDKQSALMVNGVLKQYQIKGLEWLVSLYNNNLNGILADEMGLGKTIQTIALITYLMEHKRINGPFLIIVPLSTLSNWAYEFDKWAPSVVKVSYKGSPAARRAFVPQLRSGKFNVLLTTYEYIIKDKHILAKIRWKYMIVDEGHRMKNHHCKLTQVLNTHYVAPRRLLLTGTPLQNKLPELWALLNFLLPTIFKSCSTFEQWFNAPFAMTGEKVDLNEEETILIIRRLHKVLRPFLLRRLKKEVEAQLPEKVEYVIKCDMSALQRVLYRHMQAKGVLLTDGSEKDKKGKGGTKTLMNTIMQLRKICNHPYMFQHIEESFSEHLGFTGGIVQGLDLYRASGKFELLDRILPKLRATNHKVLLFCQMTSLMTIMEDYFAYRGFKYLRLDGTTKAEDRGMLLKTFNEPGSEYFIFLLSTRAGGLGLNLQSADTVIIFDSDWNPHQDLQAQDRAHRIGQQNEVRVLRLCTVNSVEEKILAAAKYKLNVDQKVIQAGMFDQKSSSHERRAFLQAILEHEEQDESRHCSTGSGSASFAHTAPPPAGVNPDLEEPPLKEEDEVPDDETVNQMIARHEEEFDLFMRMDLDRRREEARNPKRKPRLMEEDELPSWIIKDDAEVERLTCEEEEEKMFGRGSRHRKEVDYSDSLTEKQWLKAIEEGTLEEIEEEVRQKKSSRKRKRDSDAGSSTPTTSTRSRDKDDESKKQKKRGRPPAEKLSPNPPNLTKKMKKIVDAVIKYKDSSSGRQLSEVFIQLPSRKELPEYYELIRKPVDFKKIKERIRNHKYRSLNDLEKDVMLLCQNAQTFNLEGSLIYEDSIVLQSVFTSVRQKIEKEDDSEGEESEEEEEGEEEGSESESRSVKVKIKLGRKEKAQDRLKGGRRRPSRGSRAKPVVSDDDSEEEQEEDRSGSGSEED
Protocol: as §1, §2, §3, §4, §5, §6

Row | Structure (SMILES) | DC50 (SMARCA2) | Dmax (SMARCA2) | DC50 (SMARCA4) | Dmax (SMARCA4) | SMARCA2 DMax % (SMARCA2) | SMARCA4 DMax % (SMARCA4)
1 | O=C1CCC(N2Cc3ccc(N4CCN(C[C@H]5CC[C@H](C(=O)N6CCN7c8cc(-c9cccc(F)c9O)nnc8NC[C@H]7C6)CC5)CC4)cc3C2=O)C(=O)N1 (stereo partly drawn) [Example 104, 3-(6-(4-(((1S,4r)-4-((S)-2-(3-fluoro-2-hydroxyphenyl)-6,6a,7,8,9,10-hexahydro-5H-pyrazino[1′,2′:4,5]pyrazino[2,3-c]pyridazine-8-carbonyl)cyclohexyl)methyl)piperazin-1-yl)-1-oxoisoindolin-2-yl)piperidine-2,6-dione] | < 100 nM | > 75% | 100 to 1000 nM | < 50% | – | –
2 | C[C@@H]1CN(CC2CCN(c3ccc4c(c3)C(=O)N(C3CCC(=O)NC3=O)C4)CC2)[C@@H](C)CN1C(=O)N1CCN2c3cc(-c4cccc(F)c4O)nnc3NCC2(C)C1 (stereo partly drawn) [Example 57, 3-(6-(4-(((2S,5R)-4-(2-(3-fluoro-2-hydroxyphenyl)-6a-methyl-6,6a,7,8,9,10-hexahydro-5H-pyrazino[1′,2′:4,5]pyrazino[2,3-c]pyridazine-8-carbonyl)-2,5-dimethyl-piperazin-1-yl)methyl)piperidin-1-yl)-1-oxoisoindolin-2-yl)piperidine-2,6-dione] | < 100 nM | > 75% | < 100 nM | < 50% | – | –
3 | CCC12CNc3nnc(-c4cccc(F)c4O)cc3N1CCN(C(=O)N1CCN(CC3CCN(c4ccc5c(c4)C(=O)N([C@H]4CCC(=O)NC4=O)C5)CC3)CC1(C)C)C2 (single isomer, unassigned) [Example 74] | < 100 nM | > 75% | < 100 nM | 50 to 75% | – | –
4 | C[C@@H]1C[C@H](CN2CCN(c3ccc4c(c3)C(=O)N([C@H]3CCC(=O)NC3=O)C4)CC2)C[C@H](C)N1C(=O)N1CCN2c3cc(-c4cccc(F)c4O)nnc3NCC2(C)C1 (single isomer, unassigned) [Example 120] | < 100 nM | > 75% | < 100 nM | > 75% | – | –
5 | CCC1CN(CC2CN(c3ccc4c(c3)C(=O)N(C3CCC(=O)NC3=O)C4)C2)CCN1C(=O)N1CCN2c3cc(-c4cc(F)cc(F)c4O)nnc3NC[C@H]2C1 (mixture of isomers) [Example 29, 3-(6-(3-((4-((S)-2-(3,5-difluoro-2-hydroxyphenyl)-6,6a,7,8,9,10-hexahydro-5H-pyrazino[1′,2′:4,5]pyrazino[2,3-c]pyridazine-8-carbonyl)-3-ethylpiperazin-1-yl)methyl)azetidin-1-yl)-1-oxoisoindolin-2-yl)piperidine-2,6-dione] | < 100 nM | > 75% | < 100 nM | < 50% | – | –
6 | CC1(C)CN(CC2CCN(c3ccc4c(c3)C(=O)N(C3CCC(=O)NC3=O)C4)CC2)CCN1C(=O)N1CCN2c3cc(-c4cccc(Cl)c4O)nnc3NCC2(C)C1 (mixture of isomers) [Example 31, 3-(6-(4-((4-(2-(3-chloro-2-hydroxyphenyl)-6a-methyl-6,6a,7,8,9,10-hexahydro-5H-pyrazino[1′,2′:4,5]pyrazino[2,3-c]pyridazine-8-carbonyl)-3,3-dimethylpiperazin-1-yl)methyl)piperidin-1-yl)-1-oxoisoindolin-2-yl)piperidine-2,6-dione] | < 100 nM | 50 to 75% | < 100 nM | < 50% | – | –
7 | O=C1CCC(N2Cc3ccc(N4CCN(C[C@H]5CC[C@H](CN6CCN7c8cc(-c9cccc(F)c9O)nnc8NC[C@H]7C6)CC5)CC4)cc3C2=O)C(=O)N1 (stereo partly drawn) [Example 58, 3-(6-(4-(((1S,4r)-4-(((S)-2-(3-fluoro-2-hydroxyphenyl)-5,6,6a,7,9,10-hexahydro-8H-pyrazino[1′,2′:4,5]pyrazino[2,3-c]pyridazin-8-yl)methyl)cyclohexyl)methyl)piperazin-1-yl)-1-oxoisoindolin-2-yl)piperidine-2,6-dione] | < 100 nM | > 75% | < 100 nM | 50 to 75% | – | –
8 | CCC12CNc3nnc(-c4cccc(Cl)c4O)cc3N1CCN(C(=O)N1[C@H](C)CN(CC3CCN(c4ccc5c(c4)C(=O)N([C@H]4CCC(=O)NC4=O)C5)CC3)C[C@H]1C)C2 (single isomer, unassigned) [Example 75] | < 100 nM | > 75% | < 100 nM | 50 to 75% | – | –
9 | C[C@@H]1C[C@H](CN2CCN(c3ccc4c(c3)C(=O)N([C@H]3CCC(=O)NC3=O)C4)CC2)C[C@H](C)N1C(=O)N1CCN2c3cc(-c4cccc(F)c4O)nnc3NC[C@]2(C(F)F)C1 [Example 72, (S)-3-(6-(4-(((2R,4R,6S)-1-((R)-6a-(difluoromethyl)-2-(3-fluoro-2-hydroxyphenyl)-6,6a,7,8,9,10-hexahydro-5H-pyrazino[1′,2′:4,5]pyrazino[2,3-c]pyridazine-8-carbonyl)-2,6-dimethylpiperidin-4-yl)methyl)piperazin-1-yl)-1-oxoisoindolin-2-yl)piperidine-2,6-dione] | < 100 nM | > 75% | < 100 nM | > 75% | – | –
10 | CCC12CNc3nnc(-c4cc(F)cc(F)c4O)cc3N1CCN(C(=O)N1CCN(CC3CCN(c4ccc5c(c4)C(=O)N(C4CCC(=O)NC4=O)C5)CC3)CC1(C)C)C2 (mixture of isomers) [Example 27, 3-(6-(4-((4-(2-(3,5-difluoro-2-hydroxyphenyl)-6a-ethyl-6,6a,7,8,9,10-hexahydro-5H-pyrazino[1′,2′:4,5]pyrazino[2,3-c]pyridazine-8-carbonyl)-3,3-dimethylpiperazin-1-yl)methyl)piperidin-1-yl)-1-oxoisoindolin-2-yl)piperidine-2,6-dione] | < 100 nM | > 75% | < 100 nM | 50 to 75% | – | –
11 | C[C@H]1CN2c3cc(-c4cc(F)cc(F)c4O)nnc3NC[C@H]2CN1C[C@H]1[C@@H]2CN(C[C@H]3CCN(c4ccc5c(c4)C(=O)N(C4CCC(=O)NC4=O)C5)C[C@@H]3F)C[C@@H]21 (single isomer, unassigned) [Example 39] | < 100 nM | > 75% | < 100 nM | < 50% | – | –
12 | CC12CNc3nnc(-c4cccc(F)c4O)cc3N1CCN(C[C@H]1CC[C@H](CN3CCN(c4ccc5c(c4)C(=O)N([C@H]4CCC(=O)NC4=O)C5)CC3)CC1)C2 (single isomer, unassigned) [Example 118] | < 100 nM | – | < 100 nM | – | – | –
13 | CCC12CNc3nnc(-c4cc(F)cc(F)c4O)cc3N1CCN(C(=O)C1(F)CCC(CN3CCN(c4ccc5c(c4)C(=O)N([C@H]4CCC(=O)NC4=O)C5)CC3)CC1)C2 (single isomer, unassigned) [Example 103] | < 100 nM | – | < 100 nM | – | A (A=Dmax>75%) | B (B=50%<Dmax≤75%)
14 | C[C@@H]1CN(C[C@H]2CN(c3ccc4c(c3)CN(C3CCC(=O)NC3=O)C4=O)CCO2)C[C@@H](C)N1C(=O)N1CCN2c3cc(-c4cc(F)cc(F)c4O)nnc3NC[C@H]2C1 (stereo partly drawn) [Example 46, 3-(5-((S)-2-(((3R,5R)-4-((S)-2-(3,5-difluoro-2-hydroxyphenyl)-6,6a,7,8,9,10-hexahydro-5H-pyrazino[1′,2′:4,5]pyrazino[2,3-c]pyridazine-8-carbonyl)-3,5-dimethylpiperazin-1-yl)methyl)morpholino)-1-oxoisoindolin-2-yl)piperidine-2,6-dione] | < 100 nM | > 75% | < 100 nM | < 50% | – | –
